{"source": "PubChem BioAssay AID1259407", "about": "(Chemical Carcinogenesis Research Information System (CCRIS), 2018)", "tested_on": "CCRIS mutagenicity, Ames/micronucleus/aberration tests", "test": "CCRIS mutagenicity studies", "note": "The source made the active and inactive calls. No rule for the calls is given here.", "data": [{"smiles": "O=NN1CCCC1", "values": [{"measurement": "mutagenic call", "setting": "Test System: AMES SALMONELLA TYPHIMURIUM, Strain/Indicator: TA97, Metabolic Activation: NONE, Method: STANDARD PLATE", "value": "inactive; negative"}, {"measurement": "mutagenic call", "setting": "Test System: AMES SALMONELLA TYPHIMURIUM, Strain/Indicator: TA97, Metabolic Activation: RAT, LIVER, S-9, AROCLOR 1254, Method: STANDARD PLATE", "value": "inactive; negative"}, {"measurement": "mutagenic call", "setting": "Test System: AMES SALMONELLA TYPHIMURIUM, Strain/Indicator: TA98, Metabolic Activation: NONE, Method: STANDARD PLATE", "value": "inactive; negative"}, {"measurement": "mutagenic call", "setting": "Test System: AMES SALMONELLA TYPHIMURIUM, Strain/Indicator: TA98, Metabolic Activation: RAT, LIVER, S-9, AROCLOR 1254, Method: STANDARD PLATE", "value": "inactive; negative"}, {"measurement": "mutagenic call", "setting": "Test System: AMES SALMONELLA TYPHIMURIUM, Strain/Indicator: TA100, Metabolic Activation: HAMSTER, LIVER, S-9, Method: PREINCUBATION", "value": "active; positive"}, {"measurement": "mutagenic call", "setting": "Test System: AMES SALMONELLA TYPHIMURIUM, Strain/Indicator: TA100, Metabolic Activation: HUMAN, LIVER, S-9, Method: PREINCUBATION", "value": "active; positive"}, {"measurement": "mutagenic call", "setting": "Test System: AMES SALMONELLA TYPHIMURIUM, Strain/Indicator: TA100, Metabolic Activation: NONE, Method: STANDARD PLATE", "value": "inactive; negative"}, {"measurement": "mutagenic call", "setting": "Test System: AMES SALMONELLA TYPHIMURIUM, Strain/Indicator: TA100, Metabolic Activation: PIG, LIVER, S-9, Method: PREINCUBATION", "value": "active; positive"}, {"measurement": "mutagenic call", "setting": "Test System: AMES SALMONELLA TYPHIMURIUM, Strain/Indicator: TA100, Metabolic Activation: RABBIT, LIVER, S-9, Method: STANDARD PLATE", "value": "inactive; negative"}, {"measurement": "mutagenic call", "setting": "Test System: AMES SALMONELLA TYPHIMURIUM, Strain/Indicator: TA100, Metabolic Activation: RABBIT, LUNG, S-9, Method: STANDARD PLATE", "value": "inactive; negative rabbit, lung, s-9"}, {"measurement": "mutagenic call", "setting": "Test System: AMES SALMONELLA TYPHIMURIUM, Strain/Indicator: TA100, Metabolic Activation: RABBIT, NASAL, S-9, Method: STANDARD PLATE", "value": "active; positive"}, {"measurement": "mutagenic call", "setting": "Test System: AMES SALMONELLA TYPHIMURIUM, Strain/Indicator: TA100, Metabolic Activation: RAT, ESOPHAGUS, S-9, Method: PREINCUBATION", "value": "active; positive"}, {"measurement": "mutagenic call", "setting": "Test System: AMES SALMONELLA TYPHIMURIUM, Strain/Indicator: TA100, Metabolic Activation: RAT, FORESTOMACH, S-9, Method: PREINCUBATION", "value": "active; positive"}, {"measurement": "mutagenic call", "setting": "Test System: AMES SALMONELLA TYPHIMURIUM, Strain/Indicator: TA100, Metabolic Activation: RAT, GLANDULAR STOMACH, S-9, Method: PREINCUBATION", "value": "active; positive"}, {"measurement": "mutagenic call", "setting": "Test System: AMES SALMONELLA TYPHIMURIUM, Strain/Indicator: TA100, Metabolic Activation: RAT, LIVER, S-9, AROCLOR 1254, Method: PREINCUBATION", "value": "active; positive"}, {"measurement": "mutagenic call", "setting": "Test System: AMES SALMONELLA TYPHIMURIUM, Strain/Indicator: TA100, Metabolic Activation: RAT, LIVER, S-9, AROCLOR 1254, Method: STANDARD PLATE", "value": "inactive; negative"}, {"measurement": "mutagenic call", "setting": "Test System: AMES SALMONELLA TYPHIMURIUM, Strain/Indicator: TA100, Metabolic Activation: RAT, LIVER, S-9, Method: PREINCUBATION", "value": "inactive; negative"}, {"measurement": "mutagenic call", "setting": "Test System: AMES SALMONELLA TYPHIMURIUM, Strain/Indicator: TA100, Metabolic Activation: RAT, LIVER, S-9, Method: STANDARD PLATE", "value": "inactive; negative"}, {"measurement": "mutagenic call", "setting": "Test System: AMES SALMONELLA TYPHIMURIUM, Strain/Indicator: TA100, Metabolic Activation: RAT, LUNG, S-9, Method: STANDARD PLATE", "value": "inactive; negative"}, {"measurement": "mutagenic call", "setting": "Test System: AMES SALMONELLA TYPHIMURIUM, Strain/Indicator: TA100, Metabolic Activation: RAT, NASAL, S-9, Method: STANDARD PLATE", "value": "active; positive"}, {"measurement": "mutagenic call", "setting": "Test System: AMES SALMONELLA TYPHIMURIUM, Strain/Indicator: TA102, Metabolic Activation: RAT, LIVER, S-9, AROCLOR 1254, Method: PREINCUBATION", "value": "active; positive"}, {"measurement": "mutagenic call", "setting": "Test System: AMES SALMONELLA TYPHIMURIUM, Strain/Indicator: TA104, Metabolic Activation: RAT, LIVER, S-9, AROCLOR 1254, Method: PREINCUBATION", "value": "active; positive"}, {"measurement": "mutagenic call", "setting": "Test System: AMES SALMONELLA TYPHIMURIUM, Strain/Indicator: TA1530, Metabolic Activation: RAT LIVER, CYTOSOL, ISONIAZID, Method: PREINCUBATION", "value": "inactive; negative"}, {"measurement": "mutagenic call", "setting": "Test System: AMES SALMONELLA TYPHIMURIUM, Strain/Indicator: TA1530, Metabolic Activation: RAT LIVER, MICROSOMES, ISONIAZID, Method: PREINCUBATION", "value": "active; positive"}, {"measurement": "mutagenic call", "setting": "Test System: AMES SALMONELLA TYPHIMURIUM, Strain/Indicator: TA1530, Metabolic Activation: RAT, LIVER, S-9, Method: STANDARD PLATE", "value": "active; positive"}, {"measurement": "mutagenic call", "setting": "Test System: AMES SALMONELLA TYPHIMURIUM, Strain/Indicator: TA1535, Metabolic Activation: RAT, LIVER, MICROSOMES, Method: PREINCUBATION", "value": "active; positive"}, {"measurement": "mutagenic call", "setting": "Test System: AMES SALMONELLA TYPHIMURIUM, Strain/Indicator: TA1535, Metabolic Activation: RAT, LIVER, S-9, 3-METHYLCHOLANTHRENE, Method: STANDARD PLATE", "value": "inactive; negative"}, {"measurement": "mutagenic call", "setting": "Test System: AMES SALMONELLA TYPHIMURIUM, Strain/Indicator: TA1535, Metabolic Activation: RAT, LIVER, S-9, AROCLOR 1254, Method: PREINCUBATION", "value": "active; positive"}, {"measurement": "mutagenic call", "setting": "Test System: AMES SALMONELLA TYPHIMURIUM, Strain/Indicator: TA1535, Metabolic Activation: RAT, LIVER, S-9, ETHANOL, Method: STANDARD PLATE", "value": "active; positive"}, {"measurement": "mutagenic call", "setting": "Test System: AMES SALMONELLA TYPHIMURIUM, Strain/Indicator: TA1535, Metabolic Activation: RAT, LIVER, S-9, PHENOBARBITAL, Method: STANDARD PLATE", "value": "active; positive"}, {"measurement": "mutagenic call", "setting": "Test System: AMES SALMONELLA TYPHIMURIUM, Strain/Indicator: TA1535, Metabolic Activation: RAT, LIVER, S-9, PHENOBARBITONE AND BETA-NAPHTHOFLAVONE, Method: PREINCUBATION", "value": "active; positive"}, {"measurement": "mutagenic call", "setting": "Test System: AMES SALMONELLA TYPHIMURIUM, Strain/Indicator: TA1535, Metabolic Activation: RAT, LIVER, S-9, PHENOBARBITONE AND BETA-NAPHTHOFLAVONE, Method: STANDARD PLATE", "value": "active; positive"}, {"measurement": "mutagenic call", "setting": "Test System: AMES SALMONELLA TYPHIMURIUM, Strain/Indicator: TA1535, Metabolic Activation: RAT, LIVER, S-9, PYRAZOLE, Method: PREINCUBATION", "value": "active; positive"}, {"measurement": "mutagenic call", "setting": "Test System: AMES SALMONELLA TYPHIMURIUM, Strain/Indicator: TA1535, Metabolic Activation: RAT, LIVER, S-9, PYRAZOLE, Method: STANDARD PLATE", "value": "active; positive"}, {"measurement": "mutagenic call", "setting": "Test System: AMES SALMONELLA TYPHIMURIUM, Strain/Indicator: TA1975, Metabolic Activation: RAT, LIVER, S-9, AROCLOR 1254, Method: PREINCUBATION", "value": "active; positive"}, {"measurement": "mutagenic call", "setting": "Test System: AMES SALMONELLA TYPHIMURIUM, Strain/Indicator: TA2410, Metabolic Activation: NONE, Method: HOST-MEDIATED", "value": "inactive; negative"}, {"measurement": "mutagenic call", "setting": "Test System: AMES SALMONELLA TYPHIMURIUM, Strain/Indicator: TA2678, Metabolic Activation: NONE, Method: HOST-MEDIATED", "value": "inactive; negative"}, {"measurement": "mutagenic call", "setting": "Test System: Ames Salmonella typhimurium, Strain/Indicator: YG7108, Metabolic Activation: Rat, Liver, S-9, Phenobarbital/beta-naphtoflavone, Method: Standard plate", "value": "active; positive"}, {"measurement": "mutagenic call", "setting": "Test System: Ames Salmonella typhimurium, Strain/Indicator: YG7108pin3ERb5, Metabolic Activation: None, Method: Standard plate", "value": "active; positive"}, {"measurement": "mutagenic call", "setting": "Test System: CHINESE HAMSTER OVARY, Strain/Indicator: CHO-K1-BH4 (HGPRT), Metabolic Activation: RAT, LIVER, S-9, AROCLOR, Method: SUSPENSION/PLATE", "value": "active; positive"}, {"measurement": "mutagenic call", "setting": "Test System: CHINESE HAMSTER V-79, Strain/Indicator: V-79/8-AZAGUANINE, Metabolic Activation: RAT, LIVER, S-15, PHENOBARBITAL, Method: STANDARD PLATE", "value": "active; positive"}, {"measurement": "mutagenic call", "setting": "Test System: UDS RODENT HEPATOCYTES, Strain/Indicator: THY INCORP (NON-S-PHASE), Method: AUTORADIOGRAPHY", "value": "active; positive"}]}]}
